In the NIST ThermoML archive (doi:10.1021/je800463k):

Assay: mn = molality of the nth substance listed, in mol/kg
Conditions: 101 kPa, Liquid; for mass density: Pycnometric method; for electrical conductivity: Frequency=0.001 MHz, Alternating current cell with electrodes; for speed of sound: Frequency=2 MHz

O=[N+]([O-])[O-].O=[N+]([O-])[O-].[Mg+2] [magnesium nitrate] + CO
Conditions	electrical conductivity [S/m]	mass density [kg/m3]	speed of sound [m/s]	viscosity [mPa·s]
308.75 K, m1 = 0.4555	–	824.82	–	–
308.75 K, m1 = 1.004	–	877.82	–	–
308.85 K, m1 = 1.492	–	927.12	–	–
309.1 K, m1 = 0.0082	–	775.87	–	–
309.4 K, m1 = 0.1047	–	789.92	–	–
309.75 K, m1 = 0.0545	–	782.89	–	–
309.75 K, m1 = 0.881	–	863.28	–	–
309.9 K, m1 = 0.2776	–	806.88	–	–
309.95 K, m1 = 1.259	–	904.15	–	–
310.1 K, m1 = 0.782	–	861.14	–	–
310.2 K, m1 = 0.0667	–	784.14	–	–
310.3 K, m1 = 1.71	–	944.04	–	–
310.4 K, m1 = 0.4024	–	818.47	–	–
310.45 K, m1 = 0.6276	–	841.27	–	–
310.65 K, m1 = 0.4555	–	823.17	–	–
310.7 K, m1 = 1.004	–	876	–	–
311.55 K, m1 = 1.875	–	953.58	–	–
311.6 K, m1 = 0.0082	–	773.44	–	–
311.7 K, m1 = 0.0667	–	782.46	–	–
311.9 K, m1 = 0.881	–	861.58	–	–
311.9 K, m1 = 1.259	–	902.37	–	–
312 K, m1 = 0.1047	–	787.42	–	–
312 K, m1 = 1.492	–	924.32	–	–
312.1 K, m1 = 0.4024	–	816.76	–	–
312.2 K, m1 = 0.4555	–	821.41	–	–
312.25 K, m1 = 0.6276	–	839.48	–	–
312.3 K, m1 = 0.0545	–	780.41	–	–
312.45 K, m1 = 1.71	–	942.18	–	–
312.5 K, m1 = 0.2776	–	804.41	–	–
312.85 K, m1 = 0.782	–	858.54	–	–
313.15 K, m1 = 0.0082	0.1573	–	1059.8	0.4543
313.15 K, m1 = 0.0545	0.4382	–	1066.6	0.483
313.15 K, m1 = 0.0667	0.4799	–	1067.2	0.4662
313.15 K, m1 = 0.1047	0.6326	–	1072.3	0.5128
313.15 K, m1 = 0.2776	1.215	–	1090.3	0.5885
313.15 K, m1 = 0.4024	1.537	–	1099.9	0.6799
313.15 K, m1 = 0.4555	1.625	–	1105.5	0.7062
313.15 K, m1 = 0.6276	1.951	–	1123.8	0.8707
313.15 K, m1 = 0.782	2.183	–	1140.7	0.9902
313.15 K, m1 = 0.881	2.262	–	1147.3	0.9936
313.15 K, m1 = 0.9116	2.287	–	1150.2	1.038
313.15 K, m1 = 1.004	2.39	–	1164.5	1.124
313.15 K, m1 = 1.259	2.502	–	1183.5	1.536
313.15 K, m1 = 1.492	2.545	–	1210.2	1.837
313.15 K, m1 = 1.71	2.587	–	1231.4	2.169
313.15 K, m1 = 1.875	2.567	–	1240.4	2.45
313.3 K, m1 = 0.0667	–	780.84	–	–
313.65 K, m1 = 1.004	–	873.36	–	–
313.7 K, m1 = 1.875	–	951.61	–	–
313.85 K, m1 = 0.4024	–	815.07	–	–
313.95 K, m1 = 0.0545	–	778.79	–	–
314 K, m1 = 0.0082	–	771.07	–	–
314.25 K, m1 = 1.492	–	922.37	–	–
314.4 K, m1 = 0.1047	–	784.98	–	–
314.6 K, m1 = 1.71	–	940.19	–	–
314.7 K, m1 = 0.881	–	858.85	–	–
314.8 K, m1 = 0.4555	–	818.87	–	–
314.85 K, m1 = 1.259	–	899.51	–	–
314.9 K, m1 = 0.6276	–	836.88	–	–
315.1 K, m1 = 0.2776	–	801.88	–	–
315.45 K, m1 = 0.4024	–	813.41	–	–
315.65 K, m1 = 0.0667	–	778.45	–	–
315.65 K, m1 = 0.782	–	855.81	–	–
315.8 K, m1 = 1.875	–	949.71	–	–
315.95 K, m1 = 0.1047	–	783.38	–	–
316.35 K, m1 = 0.0545	–	776.41	–	–
316.5 K, m1 = 0.4555	–	817.2	–	–
316.6 K, m1 = 0.881	–	857.07	–	–
316.6 K, m1 = 1.004	–	870.6	–	–
316.65 K, m1 = 0.6276	–	835.18	–	–
316.75 K, m1 = 1.259	–	897.65	–	–
317.35 K, m1 = 0.2776	–	799.43	–	–
317.35 K, m1 = 1.492	–	919.48	–	–
317.5 K, m1 = 0.782	–	854.04	–	–
317.8 K, m1 = 1.875	–	947.68	–	–
317.85 K, m1 = 1.71	–	937.24	–	–
318.15 K, m1 = 0.0082	–	–	1044.1	–
318.15 K, m1 = 0.0545	–	–	1045.1	–
318.15 K, m1 = 0.0667	–	–	1051.1	–
318.15 K, m1 = 0.1047	–	–	1056.1	–
318.15 K, m1 = 0.2776	–	–	1074.8	–
318.15 K, m1 = 0.4024	–	–	1083.3	–
318.15 K, m1 = 0.4555	–	–	1089.9	–
318.15 K, m1 = 0.6276	–	–	1108	–
318.15 K, m1 = 0.782	–	–	1124.4	–
318.15 K, m1 = 0.881	–	–	1131.9	–
318.15 K, m1 = 0.9116	–	–	1134	–
318.15 K, m1 = 1.004	–	–	1148.2	–
318.15 K, m1 = 1.259	–	–	1167.6	–
318.15 K, m1 = 1.492	–	–	1193.9	–
318.15 K, m1 = 1.71	–	–	1216.4	–
318.15 K, m1 = 1.875	–	–	1225.2	–
319.3 K, m1 = 0.881	–	854.45	–	–
319.45 K, m1 = 1.004	–	867.87	–	–
319.55 K, m1 = 1.259	–	894.9	–	–
320.2 K, m1 = 1.492	–	916.67	–	–
320.25 K, m1 = 0.782	–	851.43	–	–
320.75 K, m1 = 1.875	–	944.75	–	–
320.9 K, m1 = 1.71	–	934.37	–	–
323.15 K, m1 = 0.0082	–	–	1027.3	–
323.15 K, m1 = 0.0545	–	–	1033.4	–
323.15 K, m1 = 0.0667	–	–	1035.4	–
323.15 K, m1 = 0.1047	–	–	1039.7	–
323.15 K, m1 = 0.2776	–	–	1058.3	–
323.15 K, m1 = 0.4024	–	–	1067.5	–
323.15 K, m1 = 0.4555	–	–	1076.2	–
323.15 K, m1 = 0.6276	–	–	1093.5	–
323.15 K, m1 = 0.782	–	–	1108.6	–
323.15 K, m1 = 0.881	–	–	1115.5	–
323.15 K, m1 = 0.9116	–	–	1119.3	–
323.15 K, m1 = 1.004	–	–	1133.8	–
323.15 K, m1 = 1.259	–	–	1151.8	–
323.15 K, m1 = 1.492	–	–	1177.5	–
323.15 K, m1 = 1.71	–	–	1199	–
323.15 K, m1 = 1.875	–	–	1209.5	–
